Among the data in PubChem BioAssay AID328 (DTP/NCI, 2004) are T/C values, retold here.

Values joined by “and” are separate entries in the source; they are usually repeats but may differ in a detail not shown here. Identical values can stand only once. Inconclusive results and toxic doses are left out.

The assay has as its system BDF1 mice, P388 leukemia ip, median survival T/C. The assay is described as follows: NCI In Vivo Anticancer Drug Screen. Data for tumor model P388 Leukemia (intraperitoneal) in B6D2F1 (BDF1) mice. Conditions: endpoint: median survival time, higher = longer survival. The gist of the method: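 Mice carrying the transplantable tumour receive compound or vehicle. Survival is followed in each arm, and the treated measure is divided by the vehicle measure.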

Setting [1] is: dose: 100.0 mg/kg/injection, schedule: Q01DX009 (ip), vehicle: saline.
Where [2] appears, read: dose: 100.0 mg/kg/injection, schedule: Q04DX003 (ip), vehicle: saline with Tween-80.
Setting [3] is: dose: 50.0 mg/kg/injection, schedule: Q01DX009 (ip), vehicle: Klucel (hydroxypropylcellulose) (HPC).
Where [4] appears, read: dose: 100.0 mg/kg/injection, schedule: Q01DX009 (ip), vehicle: Klucel (hydroxypropylcellulose) (HPC).
The mark [5] stands for this setting: dose: 100.0 mg/kg/injection, schedule: Q04DX003 (ip), vehicle: Klucel (hydroxypropylcellulose) (HPC).
Where [6] appears, read: dose: 200.0 mg/kg/injection, schedule: Q01DX009 (ip), vehicle: Klucel (hydroxypropylcellulose) (HPC).
Setting [7] is: dose: 200.0 mg/kg/injection, schedule: Q04DX003 (ip), vehicle: Klucel (hydroxypropylcellulose) (HPC).
The mark [8] stands for this setting: dose: 200.0 mg/kg/injection, schedule: Q04DX003 (ip), vehicle: saline with Tween-80.
Where [9] appears, read: dose: 400.0 mg/kg/injection, schedule: Q04DX003 (ip), vehicle: saline with Tween-80.
Setting [10] is: dose: 100.0 mg/kg/injection, schedule: Q04DX003 (ip), vehicle: saline.
[11] abbreviates: dose: 200.0 mg/kg/injection, schedule: Q04DX003 (ip), vehicle: saline.
[12] abbreviates: dose: 400.0 mg/kg/injection, schedule: Q04DX003 (ip), vehicle: saline.
Where [13] appears, read: dose: 100.0 mg/kg/injection, schedule: Q01DX009 (ip), vehicle: saline with Tween-80.
Setting [14] is: dose: 200.0 mg/kg/injection, schedule: Q01DX009 (ip), vehicle: saline with Tween-80.
Where [15] appears, read: dose: 400.0 mg/kg/injection, schedule: Q01DX009 (ip), vehicle: Klucel (hydroxypropylcellulose) (HPC).
The mark [16] stands for this setting: dose: 400.0 mg/kg/injection, schedule: Q01DX009 (ip), vehicle: saline with Tween-80.

With `c1ccc(CNc2ncnc3[nH]ncc23)cc1`, the T/C was 86 % of control and 115 % of control (dose: 8.0 mg/kg/injection, schedule: Q01DX010 (ip), vehicle: saline); 86 % of control and 100 % of control (dose: 16.0 mg/kg/injection, schedule: Q01DX010 (ip), vehicle: saline); 95 % of control and 100 % of control (dose: 32.0 mg/kg/injection, schedule: Q01DX010 (ip), vehicle: saline); 100 % of control (dose: 64.0 mg/kg/injection, schedule: Q01DX010 (ip), vehicle: saline).
`CC(/C=N/N=C(N)N)=N/N=C(N)N`: the T/C reads like this: under setting [1], 150 % of control; (dose: 150.0 mg/kg/injection, schedule: Q01DX009 (ip), vehicle: saline with Tween-80) 90 % of control.
For the compound `O=C(O)c1cc(Br)ccc1OCc1cccc(Cl)c1`, the T/C under setting [2] was 99 % of control.
`OC1(C#CC2(O)CCCCC2)CCCCC1`: the T/C runs as follows: under setting [3], 96 % of control; (dose: 50.0 mg/kg/injection, schedule: Q04DX003 (ip), vehicle: Klucel (hydroxypropylcellulose) (HPC)) 109 % of control; under setting [4], 100 % of control; under setting [5], 109 % of control; under setting [6], 96 % of control; under setting [7], 100 % of control.
As for `CSC1C(=O)Nc2ccc(Cl)cc21` (stereo unspecified), the T/C was 97 % of control and 108 % of control under setting [2]; 98 % of control and 99 % of control under setting [8]; 99 % of control and 110 % of control under setting [9]; 92 % of control (dose: 600.0 mg/kg/injection, schedule: Q04DX003 (ip), vehicle: saline with Tween-80).
On to `Cc1ccc(/C(CN2CCOCC2)=N\O)cc1`, for which the T/C was 105 % of control (dose: 50.0 mg/kg/injection, schedule: Q01DX001 (ip), vehicle: saline sonified); 105 % of control (dose: 100.0 mg/kg/injection, schedule: Q01DX001 (ip), vehicle: saline sonified); 105 % of control (dose: 200.0 mg/kg/injection, schedule: Q01DX001 (ip), vehicle: saline sonified).
In the case of `CCOCCC(=O)O`, the T/C runs as follows: under setting [10], 104 % of control; under setting [11], 109 % of control; under setting [12], 90 % of control.
As for `Cc1ncc(CO)c(C2NOCc3nscc32)c1O` (stereo unspecified), the T/C reads like this: (dose: 7.0 mg/kg/injection, schedule: Q01DX009 (ip), vehicle: Klucel (hydroxypropylcellulose) (HPC)) 95 % of control; (dose: 11.25 mg/kg/injection, schedule: Q01DX001 (ip), vehicle: saline) 104 % of control; (dose: 14.0 mg/kg/injection, schedule: Q01DX009 (ip), vehicle: Klucel (hydroxypropylcellulose) (HPC)) 95 % of control; (dose: 19.0 mg/kg/injection, schedule: Q04DX003 (ip), vehicle: saline) 95 % of control; (dose: 22.5 mg/kg/injection, schedule: Q01DX001 (ip), vehicle: saline) 104 % of control; (dose: 45.0 mg/kg/injection, schedule: Q01DX001 (ip), vehicle: saline) 100 % of control. In addition, for the setting “dose: 45.0 mg/kg/injection, schedule: Q04DX003 (ip), vehicle: saline”, the T/C was 90 % of control.
Regarding `CC(C)Cn1cnc2c(SCc3ccc(Cl)cc3Cl)nc(N)nc21`, the T/C is 112 % of control (dose: 66.0 mg/kg/injection, schedule: Q01DX009 (ip), vehicle: gum acacia); 95 % of control (dose: 100.0 mg/kg/injection, schedule: Q01DX009 (ip), vehicle: gum acacia); 88 % of control (dose: 100.0 mg/kg/injection, schedule: Q04DX003 (ip), vehicle: gum acacia); 100 % of control (dose: 150.0 mg/kg/injection, schedule: Q01DX009 (ip), vehicle: gum acacia); 104 % of control (dose: 200.0 mg/kg/injection, schedule: Q01DX009 (ip), vehicle: gum acacia); 88 % of control (dose: 200.0 mg/kg/injection, schedule: Q04DX003 (ip), vehicle: gum acacia). Further, the T/C (dose: 400.0 mg/kg/injection, schedule: Q01DX009 (ip), vehicle: gum acacia) was 120 % of control.
On to `COC1OC(C)C(O)C(O)[CH]1[Hg][O]C(C)=O` (stereo unspecified), for which the T/C by setting is: (dose: 0.18 mg/kg/injection, schedule: Q01DX009 (ip), vehicle: saline) 111 % of control; (dose: 0.37 mg/kg/injection, schedule: Q01DX009 (ip), vehicle: saline) 105 % of control; (dose: 0.75 mg/kg/injection, schedule: Q01DX009 (ip), vehicle: saline) 94 % of control and 105 % of control; (dose: 1.5 mg/kg/injection, schedule: Q01DX009 (ip), vehicle: saline) 86 % of control and 111 % of control.
For `CCCCCCC(=O)CC(SCC)c1ccc(Cl)cc1` (stereo unspecified), the T/C (dose: 50.0 mg/kg/injection, schedule: Q01DX009 (ip), vehicle: saline with Tween-80) is 98 % of control; the T/C under setting [13] was 102 % of control; the T/C under setting [14] is 112 % of control.
As to `CCOC(=O)N1C=Cn2c(cnc2C)C1O` (stereo unspecified), the T/C (dose: 50.0 mg/kg/injection, schedule: Q01DX009 (ip), vehicle: saline) is 105 % of control; the T/C (dose: 50.0 mg/kg/injection, schedule: Q01DX009 (ip), vehicle: water) is 110 % of control; the T/C under setting [1] was 97 % of control; the T/C (dose: 100.0 mg/kg/injection, schedule: Q01DX009 (ip), vehicle: water) is 103 % of control; the T/C under setting [10] was 100 % of control; the T/C (dose: 100.0 mg/kg/injection, schedule: Q04DX003 (ip), vehicle: water) was 96 % of control. Also, the T/C was 94 % of control (dose: 200.0 mg/kg/injection, schedule: Q01DX009 (ip), vehicle: water); 102 % of control under setting [11]; 96 % of control (dose: 200.0 mg/kg/injection, schedule: Q04DX003 (ip), vehicle: water); 94 % of control (dose: 400.0 mg/kg/injection, schedule: Q01DX009 (ip), vehicle: water); 93 % of control under setting [12]; 88 % of control (dose: 400.0 mg/kg/injection, schedule: Q04DX003 (ip), vehicle: water).
As to `O=[N+]([O-])c1ccc(N2CCN(c3ccc([N+](=O)[O-])c4c3no[n+]4[O-])CC2)c2c1no[n+]2[O-]`, the T/C was 111 % of control (dose: 15.0 mg/kg/injection, schedule: Q04DX003 (ip), vehicle: saline with Tween-80); 106 % of control (dose: 30.0 mg/kg/injection, schedule: Q04DX003 (ip), vehicle: saline with Tween-80); 101 % of control (dose: 60.0 mg/kg/injection, schedule: Q04DX003 (ip), vehicle: saline with Tween-80).
As for `COc1cc(NS(C)(=O)=O)ccc1NS(C)(=O)=O`, the T/C reads like this: under setting [4], 87 % of control; under setting [6], 87 % of control; under setting [15], 87 % of control.
Consider `O=C(CCC(=O)c1cccc([N+](=O)[O-])c1)NNc1ccc([N+](=O)[O-])cc1[N+](=O)[O-]`, for which the T/C was 104 % of control under setting [13], 90 % of control under setting [14] and 95 % of control under setting [16].
`BrC1C2CCC(CC2)C1Br` (stereo unspecified): the T/C runs as follows: under setting [4], 100 % of control; under setting [5], 95 % of control; under setting [6], 104 % of control; under setting [7], 95 % of control; (dose: 400.0 mg/kg/injection, schedule: Q04DX003 (ip), vehicle: Klucel (hydroxypropylcellulose) (HPC)) 91 % of control.
With `CCCCC(=O)C1=C(O)C(Nc2ccccc2)=CC(=O)C1=Nc1ccccc1`, the T/C is 98 % of control under setting [2], 103 % of control under setting [8] and 100 % of control under setting [9].
With `CC(=O)/C=C\c1ccc(Cl)cc1`, the T/C reads like this: under setting [3], 100 % of control; under setting [4], 111 % of control; under setting [6], 109 % of control; under setting [15], 111 % of control.
`CC(C(=O)c1cc(O)c(O)cc1C(O)(C(F)(F)F)C(F)(F)F)C(O)(C(F)(F)F)C(F)(F)F` (stereo unspecified): the T/C was 100 % of control under setting [13], 100 % of control under setting [14] and 95 % of control under setting [16].
Consider `O=c1cc(-c2ccc(OCc3ccccc3)c(-c3c(OCc4ccccc4)cc(OCc4ccccc4)c4c(=O)cc(-c5ccc(OCc6ccccc6)cc5)oc34)c2)oc2cc(OCc3ccccc3)cc(OCc3ccccc3)c12`, for which, under “dose: 100.0 mg/kg/injection, schedule: Q01DX001 (ip), vehicle: saline with Tween-80”, the T/C was 88 % of control.
